Assay results published in PMC4138103 (PLoS ONE, 2014).
Values joined by “and” are separate entries in the source; they are usually repeats but may differ in a detail not shown here. Identical values can stand only once. Like-named read-outs stand apart in the source and are kept apart here.

Key:
Sprague-Dawley rats = assay: Serum thyroid hormones (FT3, FT4, TSH); format: in vivo, Rattus norvegicus; details: for Emax: Rattus norvegicus; for TSH / fT3 / fT4: group mean
Procedure: Serum free triiodothyronine (FT3), free thyroxine (FT4) and thyroid stimulating hormone (TSH) were measured by Elecsys 2010 immunochemistry analyzer using Roche FT3, FT4 and TSH reagents (all from Roche Diagnostics GmbH, Mannheim, Germany). The test principle is electrochemiluminescence immunoassay (ECLIA).
Data were also analyzed using the BMD method, which is based on dose-response modeling of the full data set using a nested family of exponential and Hill models. The analyses were done on data of males and females combined, using sex as a covariate. […] In that case, different Critical Effect Doses (CEDs) and CEDs at the lowest bound of the confidence interval (CED-L) were generated for each sex. If no difference between sexes is detected, a CED and CED-Ls for the combined data is generated. However, this was also done if the curve fits are close, and separate analyses for males and females were then performed manually. CEDs and CED-Ls were calculated at the predefined Critical Effect Size (CES) of 5% (EFSA standard) or 10%.

[1] = test system: Dopamine receptors D1 and D5; assay: Brain [3H]SCH23390 binding in exposed rats; format: in vivo, Rattus norvegicus; details: males
Procedure: The membrane containing pellet was homogenized in 15 volumes of 50 mM Tris-HCl buffer at pH 7.4, incubated at 25°C for 30 min, and centrifuged again at 100 000 g. The pellet from the second centrifugation was dissolved in 4 ml 0.32 M sucrose/g brain (v/w), with a final protein concentration of […] and frozen at −40°C.
Dopamine receptors D1 and D5 were analyzed as described before, [39]. In brief, 50 µl (0.7 mg protein) of the membrane preparation was incubated with 124–132 µl buffer (50 mM tris-HCL, 120 mM NaCl, 5 mM KCl, 2,5 mM CaCl2 and 1 mM MgCl2, pH 7.4) and 100 nM ketanserine (Tocris Bioscience, Bristol, UK; to block binding of SCH23390 to the 5-HT receptor) to a final volume of 200 µl. For measuring unspecific binding […] SCH23390 was added to the same mixture. Finally, 1 nM [^3H]SCH23390 was added to all samples to measure binding of the receptors or unspecific binding. The samples were incubated for 30 min at 25°C followed by vacuum filtration and scintillation counting.
Samples were vacuum filtrated trough Whatman glassfiber-filters (type GF/B, 25 mm) and washed 3×3 ml ice-cold incubation buffer. To reduce unspecific binding, the filters where pre-wetted in 1% polyetylenimine for 60 min. […] Radioactive binding was measured as disintegration per minute (DPM1) in a scintillation counter (Tri-Carb 3100TR, Perkin Elmer). […]

[2] = F, CES 5%, model E2, adipose tissue concentration based
[3] = F, CES 5%, model E2, adipose tissue concentration based, half min value added to zeros
[4] = F, CES 10%, model E2, adipose tissue concentration based
[5] = F, CES 10%, model E2, adipose tissue concentration based, half min value added to zeros
[6] = M, CES 5%, model E4, adipose tissue concentration based
[7] = M, CES 5%, model E4, adipose tissue concentration based, half min value added to zeros
[8] = M, CES 10%, model E4, adipose tissue concentration based
[9] = M, CES 10%, model E4, adipose tissue concentration based, half min value added to zeros
[10] = females, CES 5%, total dose based
[11] = females, CES 5%, total dose based, half min value added to zeros
[12] = females, CES 10%, total dose based
[13] = females, CES 10%, total dose based, half min value added to zeros
[14] = females, adipose tissue concentration based
[15] = females, total dose 10 mg/kg bw
[16] = females, total dose 30 mg/kg bw
[17] = females, total dose 100 mg/kg bw
[18] = females, total dose 300 mg/kg bw
[19] = females, total dose 1000 mg/kg bw
[20] = females, total dose 1700 mg/kg bw
[21] = males, CES 5%, total dose based
[22] = males, CES 5%, total dose based, half min value added to zeros
[23] = males, CES 10%, total dose based
[24] = males, CES 10%, total dose based, half min value added to zeros
[25] = males, adipose tissue concentration based
[26] = males, total dose 1000 mg/kg bw
[27] = males, total dose 1700 mg/kg bw

**Q.** What does the source list for `Clc1cc(Cl)c(-c2cc(Cl)c(Cl)c(Cl)c2Cl)cc1Cl` [PCB 180, 2,2′,3′,4,4′,5,5′-heptachlorobiphenyl]?
**A.** CED, Serum free T3 (S-fT3) (Sprague-Dawley rats; [2]): 2280 µg/g lipid; CED, Serum free T4 (S-fT4) (Sprague-Dawley rats; [2]): 821 µg/g lipid; CED-L, Serum free T3 (S-fT3) (Sprague-Dawley rats; [2]): 1496 µg/g lipid; CED-L, Serum free T4 (S-fT4) (Sprague-Dawley rats; [2]): 683 µg/g lipid; CED, Serum TSH (Sprague-Dawley rats; [3]): 206 µg/g lipid; CED-L, Serum TSH (Sprague-Dawley rats; [3]): 126 µg/g lipid; CED, Serum free T3 (S-fT3) (Sprague-Dawley rats; [4]): 4680 µg/g lipid; CED, Serum free T4 (S-fT4) (Sprague-Dawley rats; [4]): 1690 µg/g lipid; CED-L, Serum free T3 (S-fT3) (Sprague-Dawley rats; [4]): 3072 µg/g lipid; CED-L, Serum free T4 (S-fT4) (Sprague-Dawley rats; [4]): 1402 µg/g lipid; CED, Serum TSH (Sprague-Dawley rats; [5]): 402 µg/g lipid; CED-L, Serum TSH (Sprague-Dawley rats; [5]): 246 µg/g lipid; CED, Serum free T3 (S-fT3) (Sprague-Dawley rats; [6]): 428 µg/g lipid; CED, Serum free T4 (S-fT4) (Sprague-Dawley rats; [6]): 158 µg/g lipid; CED-L, Serum free T3 (S-fT3) (Sprague-Dawley rats; [6]): 196 µg/g lipid; CED-L, Serum free T4 (S-fT4) (Sprague-Dawley rats; [6]): 117 µg/g lipid; CED, Serum TSH (Sprague-Dawley rats; [7]): 0.29 µg/g lipid; CED-L, Serum TSH (Sprague-Dawley rats; [7]): 0.04 µg/g lipid; CED, Serum free T3 (S-fT3) (Sprague-Dawley rats; [8]): 976 µg/g lipid; CED, Serum free T4 (S-fT4) (Sprague-Dawley rats; [8]): 328 µg/g lipid; CED-L, Serum free T3 (S-fT3) (Sprague-Dawley rats; [8]): 449 µg/g lipid; CED-L, Serum free T4 (S-fT4) (Sprague-Dawley rats; [8]): 243 µg/g lipid; CED, Serum TSH (Sprague-Dawley rats; [9]): 0.58 µg/g lipid; CED-L, Serum TSH (Sprague-Dawley rats; [9]): 0.09 µg/g lipid; Emax (Sprague-Dawley rats; F, model E2, controls vs high dose according to the fitted model, read-out: Maximum response, Serum free T3 (S-fT3)): -22.5%; Emax (Sprague-Dawley rats; females, controls vs high dose, fitted model, read-out: Serum free T3 (S-fT3), Maximum response): -21.8%; Emax (Sprague-Dawley rats; males, controls vs high dose, fitted model, read-out: Serum free T3 (S-fT3), Maximum response): -26%; Emax (Sprague-Dawley rats; read-out: Maximum response, Serum free T4 (S-fT4), F, model E2, controls vs high dose according to the fitted model): -50.7%; Emax (Sprague-Dawley rats; read-out: Maximum response, Serum free T4 (S-fT4), M, model E4, controls vs high dose according to the fitted model): -67.2%; Emax (Sprague-Dawley rats; read-out: Serum free T4 (S-fT4), Maximum response, females, controls vs high dose, fitted model): -49.4%; Emax (Sprague-Dawley rats; read-out: Serum free T4 (S-fT4), Maximum response, males, controls vs high dose, fitted model): -66.7%; Emax (Sprague-Dawley rats; model E4, controls vs high dose according to the fitted model, read-out: Maximum response, Serum free T3 (S-fT3)): -25%; fT3, Dose response (Sprague-Dawley rats; females): D, T; fT4, Dose response (Sprague-Dawley rats; females): D, T; Serum free T3 (S-fT3), CED (Sprague-Dawley rats; [10]): 354 mg/kg bw; Serum free T3 (S-fT3), CED-L (Sprague-Dawley rats; [10]): 233 mg/kg bw; Serum free T4 (S-fT4), CED (Sprague-Dawley rats; [10]): 128 mg/kg bw; Serum free T4 (S-fT4), CED-L (Sprague-Dawley rats; [10]): 106.6 mg/kg bw; Serum TSH, CED (Sprague-Dawley rats; [11]): 32.5 mg/kg bw; Serum TSH, CED-L (Sprague-Dawley rats; [11]): 19.9 mg/kg bw; Serum free T3 (S-fT3), CED (Sprague-Dawley rats; [12]): 727 mg/kg bw; Serum free T3 (S-fT3), CED-L (Sprague-Dawley rats; [12]): 479 mg/kg bw; Serum free T4 (S-fT4), CED (Sprague-Dawley rats; [12]): 263 mg/kg bw; Serum free T4 (S-fT4), CED-L (Sprague-Dawley rats; [12]): 219 mg/kg bw; Serum TSH, CED (Sprague-Dawley rats; [13]): 63.5 mg/kg bw; Serum TSH, CED-L (Sprague-Dawley rats; [13]): 38.8 mg/kg bw; Serum free T3, CED (Sprague-Dawley rats; [14]): 2280 µg/g lipid; Serum free T4, CED (Sprague-Dawley rats; [14]): 821 µg/g lipid; TSH (Sprague-Dawley rats; females, total dose 3 mg/kg bw): 0.047 µIU/ml; fT3 (Sprague-Dawley rats; females, total dose 3 mg/kg bw): 5.72 pmol/L; fT4 (Sprague-Dawley rats; females, total dose 3 mg/kg bw): 22.2 pmol/L; TSH (Sprague-Dawley rats; [15]): 0.000136 µIU/ml; fT3 (Sprague-Dawley rats; [15]): 5.10 pmol/L; fT4 (Sprague-Dawley rats; [15]): 19.1 pmol/L; TSH (Sprague-Dawley rats; [16]): 0.00543 µIU/ml; fT3 (Sprague-Dawley rats; [16]): 6.17 pmol/L; fT4 (Sprague-Dawley rats; [16]): 23.4 pmol/L; TSH (Sprague-Dawley rats; [17]): 0.011 µIU/ml; fT3 (Sprague-Dawley rats; [17]): 6.20 pmol/L; fT4 (Sprague-Dawley rats; [17]): 22.4 pmol/L; TSH (Sprague-Dawley rats; [18]): 0.021 µIU/ml; fT3 (Sprague-Dawley rats; [18]): 5.68 pmol/L; fT4 (Sprague-Dawley rats; [18]): 18.0 pmol/L; TSH (Sprague-Dawley rats; [19]): 0.011 µIU/ml; fT3 (Sprague-Dawley rats; [19]): 5.16 pmol/L; fT4 (Sprague-Dawley rats; [19]): 15.3 pmol/L; TSH (Sprague-Dawley rats; [20]): 0.066 µIU/ml; fT3 (Sprague-Dawley rats; [20]): 4.70 pmol/L; fT4 (Sprague-Dawley rats; [20]): 11.1 pmol/L; Increased serum TSH, CED-L (Sprague-Dawley rats; males): 0.04 µg/g lipid; TSH, Dose response (Sprague-Dawley rats; males): D, T; fT3, Dose response (Sprague-Dawley rats; males): D, T; fT4, Dose response (Sprague-Dawley rats; males): D, T; Serum free T3 (S-fT3), CED (Sprague-Dawley rats; [21]): 290 mg/kg bw; Serum free T3 (S-fT3), CED-L (Sprague-Dawley rats; [21]): 218 mg/kg bw; Serum free T4 (S-fT4), CED (Sprague-Dawley rats; [21]): 38.1 mg/kg bw; Serum free T4 (S-fT4), CED-L (Sprague-Dawley rats; [21]): 26.8 mg/kg bw; Serum TSH, CED (Sprague-Dawley rats; [22]): 0.07 mg/kg bw and 0.0747 mg/kg bw; Serum TSH, CED-L (Sprague-Dawley rats; [22]): 0.0139 mg/kg bw; Serum free T3 (S-fT3), CED (Sprague-Dawley rats; [23]): 596 mg/kg bw; Serum free T3 (S-fT3), CED-L (Sprague-Dawley rats; [23]): 448 mg/kg bw; Serum free T4 (S-fT4), CED (Sprague-Dawley rats; [23]): 79.4 mg/kg bw; Serum free T4 (S-fT4), CED-L (Sprague-Dawley rats; [23]): 56.0 mg/kg bw; Serum TSH, CED (Sprague-Dawley rats; [24]): 0.149 mg/kg bw; Serum TSH, CED-L (Sprague-Dawley rats; [24]): 0.0278 mg/kg bw; Serum TSH, CED (Sprague-Dawley rats; [25]): 0.29 µg/g lipid; Serum free T3, CED (Sprague-Dawley rats; [25]): 428 µg/g lipid; Serum free T4, CED (Sprague-Dawley rats; [25]): 158 µg/g lipid; Serum thyroxine, CED-L (Sprague-Dawley rats; [25]): 117000 ng/g lipid; TSH (Sprague-Dawley rats; males, total dose 3 mg/kg bw): 0.021 µIU/ml; fT3 (Sprague-Dawley rats; males, total dose 3 mg/kg bw): 5.74 pmol/L; fT4 (Sprague-Dawley rats; males, total dose 3 mg/kg bw): 25.4 pmol/L; TSH (Sprague-Dawley rats; males, total dose 10 mg/kg bw): 0.057 µIU/ml; fT3 (Sprague-Dawley rats; males, total dose 10 mg/kg bw): 5.58 pmol/L; fT4 (Sprague-Dawley rats; males, total dose 10 mg/kg bw): 28.4 pmol/L; TSH (Sprague-Dawley rats; males, total dose 30 mg/kg bw): 0.059 µIU/ml; fT3 (Sprague-Dawley rats; males, total dose 30 mg/kg bw): 5.77 pmol/L; fT4 (Sprague-Dawley rats; males, total dose 30 mg/kg bw): 27.2 pmol/L; TSH (Sprague-Dawley rats; males, total dose 100 mg/kg bw): 0.089 µIU/ml; fT3 (Sprague-Dawley rats; males, total dose 100 mg/kg bw): 5.39 pmol/L; fT4 (Sprague-Dawley rats; males, total dose 100 mg/kg bw): 21.7 pmol/L; TSH (Sprague-Dawley rats; males, total dose 300 mg/kg bw): 0.075 µIU/ml; fT3 (Sprague-Dawley rats; males, total dose 300 mg/kg bw): 5.24 pmol/L; fT4 (Sprague-Dawley rats; males, total dose 300 mg/kg bw): 17.6 pmol/L; TSH (Sprague-Dawley rats; [26]): 0.100 µIU/ml; fT3 (Sprague-Dawley rats; [26]): 4.21 pmol/L; fT4 (Sprague-Dawley rats; [26]): 11.7 pmol/L; TSH (Sprague-Dawley rats; [27]): 0.137 µIU/ml; fT3 (Sprague-Dawley rats; [27]): 4.41 pmol/L; fT4 (Sprague-Dawley rats; [27]): 8.71 pmol/L; Specific [3H]SCH23390 binding to D1/D5 dopamine receptors in cerebrum vs controls ([1]; 1000 mg/kg bw): No significant differences; Dopamine D1/D5 receptor binding ([1]; total dose 1000 mg/kg bw, group mean): 1075 DPM1
